Source: PubChem BioAssay (NCI)
Values joined by “and” are separate entries in the source; they are usually repeats but may differ in a detail not shown here. Equal entries are not always repeated.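 Interpolation was linear, between the two tested concentrations surrounding the appropriate level; five concentrations were tested over 48 hours in 96-well plates. GI50: concentration for 50% inhibition of growth. TGI is the concentration that stops growth completely.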

What was measured:
Assay in all cases: NCI anticancer screen, dose series, 48 h
786-0 renal = system: 786-0 renal
KM12 colon = system: KM12 colon
HCT-15 colon = system: HCT-15 colon
IGROV1 ovarian = system: IGROV1 ovarian
SK-MEL-28 melanoma = system: SK-MEL-28 melanoma
SK-MEL-5 melanoma = system: SK-MEL-5 melanoma
COLO 205 colon = system: COLO 205 colon
A549 NSCLC = system: A549 NSCLC
HCT-116 colon = system: HCT-116 colon
RPMI-8226 leukemia = system: RPMI-8226 leukemia

Compound | GI50 (786-0 renal) | TGI (786-0 renal) [µM] | GI50 (KM12 colon) [µM] | TGI (KM12 colon) | GI50 (HCT-15 colon) [µM] | TGI (HCT-15 colon) | GI50 (IGROV1 ovarian) [µM] | TGI (IGROV1 ovarian) [µM] | GI50 (SK-MEL-28 melanoma) [µM] | TGI (SK-MEL-28 melanoma) [µM] | GI50 (SK-MEL-5 melanoma) [µM] | TGI (SK-MEL-5 melanoma) [µM] | GI50 (COLO 205 colon) [µM] | TGI (COLO 205 colon) [µM] | GI50 (A549 NSCLC) [µM] | TGI (A549 NSCLC) | GI50 (HCT-116 colon) [µM] | TGI (HCT-116 colon) | GI50 (RPMI-8226 leukemia) [µM] | TGI (RPMI-8226 leukemia)
Cc1cc(C2=NNC(=O)Cc3cc4c(cc32)OCCO4)cc(C)c1N | 5.27 µM | > 100 | 0.818 | > 100 µM | 1.25 | > 100 µM | 3 | > 100 | 5.37 | > 100 | 1.22 | > 100 | 1.55 | 11.2 | 3.2 | > 100 µM | 2.35 | > 100 µM |  | 
COc1ccc2nc3cc(Cl)ccc3c(N3CCN(c4ccnc(N5CCOCC5)n4)CC3)c2c1 | 4.23 µM | 34.3 | 19.3 | > 100 µM | 3.28 | > 100 µM | > 100 | > 100 | 58.4 | > 100 | > 100 | > 100 | 6.66 | > 100 | > 100 | > 100 µM | 6.29 | > 100 µM | 2.92 | 10.6 µM
OCC1OC(OCC(O)C(O)C(O)C(/C=N/Nc2ccccc2)=N/Nc2ccccc2)C(O)C(O)C1O (configuration not stated) |  | > 100 |  | > 100 µM |  | > 100 µM |  | > 100 |  | > 100 |  | > 100 |  | > 100 |  | > 100 µM |  | > 100 µM |  | > 100 µM
CC(=O)O[C@]1(C)OC(=O)[C@@H](C)N1[N+](=O)[O-] |  | > 100 |  | > 100 µM |  | > 100 µM |  | > 100 |  | > 100 |  | > 100 |  | > 100 |  | > 100 µM |  | > 100 µM |  | > 100 µM
CC/C(=C(/CC)c1ccc([O-])cc1)c1ccc([O-])cc1.CC/C(=C(\CC)c1ccc([O-])cc1)c1ccc([O-])cc1.O=C([CH-]C(=O)c1ccccc1)c1ccccc1.O=C([CH-]C(=O)c1ccccc1)c1ccccc1.O=C([CH-]C(=O)c1ccccc1)c1ccccc1.O=C([CH-]C(=O)c1ccccc1)c1ccccc1.[Ti+4].[Ti+4] | 16.9 µM | 32.4 | 26.3 | > 100 µM | 39.4 | > 100 µM | 41.9 | > 100 | 39.5 | > 100 |  |  | 37.9 | > 100 | 18.9 | 47.9 µM | 28.8 | > 100 µM | 71.4 | > 100 µM
O=C(c1ccco1)c1nc2cc(F)ccc2[n+]([O-])c1C(F)(F)F | 53.2 µM | > 100 | 57 | > 100 µM | 17.8 | 39.1 µM | 17.9 | 36.7 | 29.4 | 95.4 | > 100 | > 100 | 16 | 32.7 | 34.6 | > 100 µM | 34 | > 100 µM | 35.8 | > 100 µM
CN(C)CCOc1ccc(/C(=C(/CCCl)c2ccccc2)c2ccccc2)cc1 | 0.906 µM |  | 1.18 | 12.8 µM and 32.4 µM | 1.95 | 7.87 µM and 28.1 µM | 1.33 |  | 0.912 |  | 0.784 |  | 0.858 |  | 1.27 | 3.24 µM and 29.9 µM | 1.59 | 5.33 µM and 30.4 µM | 1.03 | 2.5 µM and 23.6 µM
O=[N+]([O-])c1ccc2c(N3CCC(CCCC4CCN(c5ncnc6cc([N+](=O)[O-])ccc56)CC4)CC3)ncnc2c1 | > 46 µM | > 86.2 | > 56.7 | > 100 µM | > 50.6 | > 100 µM | > 62.8 | > 100 | > 44.7 | > 100 | 0.156 | 11.8 | 11.5 | > 100 | 38.1 | > 100 µM | 0.514 | 97.6 µM | 0.388 | 96.9 µM
CCOC(=O)c1c2c(n(Cc3ccccc3)c1C)-c1ccccc1C(=O)C2=O | 6.35 µM | 19.3 | 19.8 | 65.3 µM | 15.3 | 30.8 µM | 4.35 | 20.1 | 16.4 | 41.4 | 18 | 41.2 | 15.6 | 30.6 | 16.8 | 36.4 µM | 11.6 | 25.2 µM | 13.2 | 62.2 µM
Cc1cnc(/C=N\NC(N)=S)c2cccc(N)c12 | 0.867 µM and 0.501 µM |  | 4.82 | > 100 µM | 3.59 | > 100 µM | 2.4 | > 100 |  | > 100 | 1.25 |  | 3.23 | > 100 | 4.85 | > 100 µM | 4.41 | > 100 µM and 28.3 µM | 2.1 | > 100 µM
COC(=O)c1ccc(NC(=O)Nc2ccc3oc(=O)c4ccccc4c3c2)cc1 | 18 µM | 41.9 | > 100 | > 100 µM | > 100 | > 100 µM | 37.8 | > 100 | 76 | > 100 | 5.21 | 17.3 | 32.5 | > 100 | > 100 | > 100 µM | 32.4 | > 100 µM | 20.3 | > 100 µM
C/C(=N\N=C(\[Se])N1CCN(c2ccccn2)CC1)c1ccccn1 | 0.198 µM | 19.8 | 0.239 | 18.5 µM | 0.0118 | 17.3 µM |  |  |  | 22.7 | 0.0401 | 3.95 | 0.00449 | 0.0358 | 0.0476 | 21.7 µM | 0.00589 | 6.27 µM | 0.00477 | 0.486 µM
O=C1OCCC1C(O)C1c2ccccc2-c2ccccc21 (configuration not stated) |  | > 100 |  | > 100 µM |  |  |  | > 100 |  | > 100 |  |  |  | > 100 |  | > 100 µM |  | > 100 µM |  | > 100 µM
C1C[S][Ge]2([S]CCO1)[S]CCOCC[S]2 | > 100 µM | > 100 |  |  | > 100 | > 100 µM | > 100 | > 100 | > 100 | > 100 |  |  | > 100 | > 100 |  |  | > 100 | > 100 µM | > 100 | > 100 µM
